Paper PMC9481570, “A small molecule antagonist of SMN disrupts the interaction between SMN and RNAP II” (Nature Communications, 2022)

Legend:
SMN Tudor domain [1] = target: T1, SMN Tudor domain (Homo sapiens, UniProt Q16637); test: ITC binding to Tudor domain of SMN; conditions: Supplementary Figs. 2, 4 and 11a (VP-ITC); read-out: Kd, ITC binding curve, Tudor domain of SMN
T1 construct: SMN (aa 82–147); His (N, cleaved yes); made in house; host or cells: E. coli BL21 (DE3) Codon plus RIL
Source text: The coding DNA fragments of following Tudor domains were cloned into pET28-MHL vector: SMN (aa 82–147), UHRF1 (aa 126–285), SMNDC1 (aa 53–130), TDRD3 (aa 554–611), SND1 (aa 650–910), TDRD2 (aa 327–420), FXR1 (aa 2–132), PHF1 (aa 28–87), SGF29 (aa 115–293), JMJD2A (aa 897–1101), 53BP1 (aa 1483–1606), SETDB1 (aa 190–410), LBR (aa 1–67), ZGPAT (aa 120–271). The coding regions of chromodomain of CBX7 (aa 8–62), PWWP domain of DNMT3A (aa 275–417), WD40 repeats of WDR5 (aa 24–334) and CW domain of ZCWPW2 (aa 21–78) were also subcloned into pET28-MHL vector to generate N-terminally His-tagged fusion protein. The MBT repeats of L3MBTL1 (aa 200–522) and L3MBTL2 (aa 170–625) were subcloned into pET28GST-LIC vector to generate N-terminally GST-His-tagged fusion protein. All the plasmids were generated by ligase independent cloning (Vazyme Biotech, C112 or ABclonal Technology, RK21020). […] The proteins were further purified by Superdex75 or Superdex200 gel-filtration column (GE Healthcare) in a buffer containing 20 mM Tris-HCl, pH 7.5, 150 mM NaCl and 1 mM DTT. For crystallization experiments, purified proteins were concentrated to 18 mg/mL for SMN, 23 mg/mL for UHRF1 and 10 mg/mL for TDRD3 in the gel-filtration buffer. All the mutations were introduced with the QuikChange II XL site-directed mutagenesis kit (Stratagene, 200522) and confirmed by DNA sequencing. Mutant proteins were also expressed in E. coli BL21 (DE3) Codon plus RIL and purified using the same procedures described above. The molecular weight of all protein samples was measured by mass spectrometry.
For the ITC measurement, the concentrated proteins were diluted into 20 mM Tris-HCl, pH 7.5, 150 mM NaCl (ITC buffer); the lyophilized compounds were dissolved in the same buffer, and the pH value was adjusted by adding 2 M NaOH or 2 M HCl. The compounds that could not be dissolved in the ITC buffer were dissolved in DMSO with the accessible highest concentration. Compound concentrations were calculated from the mass and the volume of the solvent. For the ITC assay with compound dissolved in DMSO, the protein was diluted by ITC buffer containing same final concentration of DMSO. All measurements were performed in duplicate at 25 °C, using a VP-ITC (MicroCal, Inc.), an iTC-200 (MicroCal, Inc.), or a Nano-ITC (TA, Inc.) microcalorimeter. The protein with a concentration of 50–100 μM was placed in the cell chamber, and the compounds with a concentration of 0.5–2 mM in syringe was injected in 25, 20, or 20 successive injections with a spacing of 180, 150, or 120 s for VP-ITC, iTC-200, or Nano-ITC, respectively, as previously described[30]–[32]. iTC-200 or Nano-ITC data were consistent with those from the VP-ITC instrument, based on ITC results of SMN-compound 1 detected by using all the instruments. Control experiments were performed under identical conditions to determine the heat signals that arise from injection of the compounds into the buffer. Data were fitted using the single-site binding model within the Origin software 7.0 package (MicroCal, Inc.) or the independent model within the Nano-Analyze software package (TA, Inc.).

SMN Tudor domain [2] = target: T1, SMN Tudor domain; test: Fluorescence of CCVJ-Cmpd 1 in solution on addition of SMN Tudor domain; format: binding; conditions: 10 μM SMN Tudor with 10 μM CCVJ-Cmpd 1, in solution
Source text: Supplementary Fig. 5 Interaction between Tudor domain of SMN and CCVJ-Cmpd 1 triggers fluorescence signals. a Fluorescence signals of 10 µM SMN Tudor, 10 µM CCVJ-Cmpd 1, and mixture of 10 µM SMN Tudor with 10 µM CCVJ-Cmpd 1 were detected by fluorescence microscope (Nikon, ECLIPSE Ti-E), under the excitation of blue light. The […]
the SMN Tudor domain protein. Exposure time: 1 s. b Fluorescence signals for addition of different concentrations of the SMN Tudor domain protein to 5 µM CCVJ-Cmpd 1 detected by Infinite M1000 Pro microplate reader (Tecan) with an excitation wavelength of 440 nm and an emission wavelength of 460-600 nm. Data shown are representative of three […]

mCherry-SMN = target: T2, mCherry-SMN (Homo sapiens, UniProt Q16637); test: Fluorescence colocalization in U2OS cells, mCherry-SMN WT; format: cell-based; conditions: 10 μM, 24 h
T2 construct: the coding DNAs of full-length SMN, SND1 and TDRD3 were cloned into mCherry2-C1 or GFP-C1 vector; expressed in transfected cells; host or cells: U2OS
T2 sequence (Q16637 whole entry): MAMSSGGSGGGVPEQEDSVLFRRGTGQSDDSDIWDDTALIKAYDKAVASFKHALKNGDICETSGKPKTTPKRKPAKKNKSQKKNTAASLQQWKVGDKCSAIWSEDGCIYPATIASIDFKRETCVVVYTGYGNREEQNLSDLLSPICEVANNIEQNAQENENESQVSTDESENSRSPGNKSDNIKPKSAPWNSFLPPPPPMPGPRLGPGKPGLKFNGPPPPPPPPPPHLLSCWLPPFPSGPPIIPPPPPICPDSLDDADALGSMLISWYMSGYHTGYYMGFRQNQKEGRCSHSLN
Procedure: (§1) U2OS cells (ATCC, HTB-96) were plated in a 35 mm FluoroDish with a 0.17 mm coverslip bottom (World Precision Instruments, FD35-100) for 12–24 h and transfected with 1.0 μg mCherry-SMN WT (wild-type) or mutant plasmids. Media was changed 4–6 h after transfection and cells were cultured for another 24 h. 10 μM CCVJ-Cmpd 1 was added for 24 h treatment. Then the treated cells were rinsed by PBS and the media replaced with phenol-free FluoroBright DMEM (Thermo Fisher, A1896701) for analysis by using Zeiss LSM880 microscopy.

[3] = test system: mCherry-SMN cage mutant (W102); test: Fluorescence colocalization in U2OS cells, mCherry-SMN cage mutant; format: cell-based, human; conditions: 10 μM, 24 h, W102 mutated
Procedure: as §1

SMN = target: T3, SMN (Homo sapiens, UniProt Q16637); conditions: physiological ligand; read-out: binding affinity (Kd) to SMN; cited from earlier work
T3 construct: endogenous in cells; host or cells: U2OS
T3 sequence (Q16637 whole entry): as above

T1 sequence (Q16637 82-147): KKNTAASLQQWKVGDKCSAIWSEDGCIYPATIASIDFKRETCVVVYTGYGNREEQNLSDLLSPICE

Row | SMILES | Kd (SMN Tudor domain [1]) | fluorescence signal on addition of SMN Tudor domain protein (SMN Tudor domain [2]) | colocalization with mCherry-SMN (mCherry-SMN) | colocalization with mCherry-SMN cage mutant [3] | Kd (SMN)
1 | N#C/C(=C\c1cc2c3c(c1)CCCN3CCC2)C(=O)NCCNC(=O)Cn1c2c(c(=N)c3c1CCC3)CCC2 [CCVJ-Cmpd 1] | 22 ± 1 µM | enhanced | colocalized | not observed | –
2 | CN=C(NC)NCCC[C@H](N)C(=O)O [symmetric dimethylarginine] | – | – | – | – | 476 µM
